Three compounds from US20220241416A1, “METHODS FOR THE IDENTIFICATION OF SARM1 NADASE ACTIVITY INHIBITORS AND USES THEREOF” (Bar Ilan University, priority 2021, published 2022) can be followed below.

The target in the assay is T1, hSARM1 (Homo sapiens, UniProt Q6SZW1, E642Q).
T1 construct: short of the N′ terminal mitochondria) localization signal (26ERL . .; 6xHis (N); TEV cleavage site (N); made in house; host or cells: HEK293F suspension cells
T1 sequence (Q6SZW1 with tags, fused parts or gaps E642Q): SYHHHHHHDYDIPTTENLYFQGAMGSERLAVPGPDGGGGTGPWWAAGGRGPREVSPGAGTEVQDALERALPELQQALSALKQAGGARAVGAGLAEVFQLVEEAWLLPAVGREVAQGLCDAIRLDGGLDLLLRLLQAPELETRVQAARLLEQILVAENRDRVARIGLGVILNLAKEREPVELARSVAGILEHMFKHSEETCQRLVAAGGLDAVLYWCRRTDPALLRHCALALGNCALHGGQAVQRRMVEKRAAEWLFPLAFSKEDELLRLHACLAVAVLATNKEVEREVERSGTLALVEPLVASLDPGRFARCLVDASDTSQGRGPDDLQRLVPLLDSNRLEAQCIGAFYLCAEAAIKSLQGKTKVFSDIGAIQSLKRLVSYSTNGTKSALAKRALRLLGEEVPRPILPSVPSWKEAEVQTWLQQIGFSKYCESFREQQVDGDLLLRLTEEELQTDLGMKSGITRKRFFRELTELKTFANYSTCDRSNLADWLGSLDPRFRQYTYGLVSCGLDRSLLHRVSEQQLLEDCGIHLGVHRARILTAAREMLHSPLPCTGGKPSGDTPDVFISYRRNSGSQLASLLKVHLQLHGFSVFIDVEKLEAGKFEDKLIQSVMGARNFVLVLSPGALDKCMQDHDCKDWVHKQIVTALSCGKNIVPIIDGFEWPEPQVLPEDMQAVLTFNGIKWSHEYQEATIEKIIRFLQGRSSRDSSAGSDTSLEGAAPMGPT
Briefly: Cryo-EM 2D classification of hSARM1 conformation. The following applies: for effect on hSARM1 conformation: 2D classification / GraFix. As for the experimental part:
FIG. 7B: The structural effects of NAD+ and ATP were observed by cryo-EM based on appearance in 2D classification. Presented are the 10 most populated classes (those with the largest number of particles—numbers in green, 1st class is on the left) out of 50-100 from each data collection after the first round of particle picking and classification. By this analysis, the percentage of particles that present full, two-ring structure is 13% (no NAD+); 74% (5 mM NAD+); and 4% (10 mM ATP).
Cryo-EM grids were prepared by applying 3 μl protein samples to glow-discharged (PELCO easiGlow™ Ted Pella Inc., at 15 mA for 1 minute) holey carbon grids (Quantifoil R 1.2/1.3, Micro Tools GmbH, Germany). The grids were blotted for 4 seconds and vitrified by rapidly plunging into liquid ethane at −182° C. using Leica EM GP plunger (Leica Microsystems, Vienna, Austria). The frozen grids were stored in liquid nitrogen until the day of cryo-EM data collection.
The data presented herein was collected with three separate cryo-electron microscopes: 1) F30 Polara in Ben-Gurion University, Israel was used for all sample preparation optimization. It was also used to collect data sets without and with potential inhibitors (shown in FIG. 1C and the ATP and NMN supplemented classes in FIG. 7B). Samples were imaged under low-dose conditions on a FEI Tecnai F30 Polara microscope (FEI, Eindhoven) operating at 300 kV. Datasets were collected using SerialEM (D. N. Mastronarde, et al. Journal of structural biology 152, 36-51 (2005)) on a K2 Summit direct electron detector fitted behind an energy filter (Gatan Quantum GIF) with a calibrated pixel size of 1.1 Å. The energy filter was set to remove electrons >±10 eV from the zero-loss peak energy. The defocus range was set from −1.0 μm to −2.5 μm. The K2 summit camera was operated in counting mode at a dose rate of 8 electrons/pixel/second on the camera. Each movie was dose fractionated into 50 image frames, with total electron dose of 80ē/Å2. Dose-fractionated image stacks were aligned using MotionCorr2 (X. Li et al., Nature methods 10, 584-590 (2013)), and their defocus values estimated by Gctf (K. Zhang, et al. J Struct Biol 193, 1-12 (2016)). The sum of the aligned frames was used for further processing and the rest of the processing was done in Cryosparc V2 (A. Punjani, J. et al. Nature Methods 14, 290-+(2017)). Particles were auto-picked and subjected to local motion correction to correct for beam-induced drift and then 2D classification with 50 classes. The best (based on shape, number of particles and resolution) classes were manually selected containing 5459 (for hSARM1E642Q) and 43868 (for SAM1-2) particles. 1 initial 3D reference was prepared from all particles and 3D refinement imposing C8 symmetry resulted the final map. […]

“And” between values parts separate entries of the source, which are not always exact repeats. Equal values may be shown once. Some results are limits rather than exact numbers.

Regarding `Nc1ncnc2c1ncn2[C@@H]1O[C@H](COP(=O)(O)OP(=O)(O)OP(=O)(O)O)[C@@H](O)[C@H]1O` [ATP], the “effect on hSARM1 conformation” value is given as “did not affect hSARM1 conformation”. Besides, where the note is “10 mM ATP, 13% without supplement”, the “percentage of particles that present full, two-ring structure” value is 4%.

Regarding `NC(=O)c1ccc[n+]([C@@H]2O[C@H](COP(=O)([O-])OP(=O)(O)OC[C@H]3O[C@@H](n4cnc5c(N)ncnc54)[C@H](O)[C@@H]3O)[C@@H](O)[C@H]2O)c1` [NAD+, Nicotinamide adenine dinucleotide], where the note is “5 mM NAD+, 13% or <20% without NAD+”, the “percentage of particles that present full, two-ring structure” value was > 80% and 74%.

Take `OCC(O)CO` [glycerol]: the “effect on hSARM1 conformation” value is “imposes hSARM1 compact conformation”.
